In article PMC8689651, “Chemical Mapping Exposes the Importance of Active Site Interactions in Governing the Temperature Dependence of Enzyme Turnover” (ACS Catalysis, 2021):

Target: T1, ssGDH (glucose dehydrogenase from Sulfolobus solfataricus) (Saccharolobus solfataricus, UniProt O93715)
T1 construct: gene gdh; full-length, recombinant from pET3a, heat step (70 °C), anion exchange and gel filtration, no tag mentioned; homotetramer; five Trp per monomer
Experiment: steady-state NADPH formation at […] nm
Assay type: biochemical
Conditions: apparent substrate inhibition; co-substrate NADP+; 100 mM HEPES pH 8; temperature not stated with the value

T1 sequence (O93715 whole entry): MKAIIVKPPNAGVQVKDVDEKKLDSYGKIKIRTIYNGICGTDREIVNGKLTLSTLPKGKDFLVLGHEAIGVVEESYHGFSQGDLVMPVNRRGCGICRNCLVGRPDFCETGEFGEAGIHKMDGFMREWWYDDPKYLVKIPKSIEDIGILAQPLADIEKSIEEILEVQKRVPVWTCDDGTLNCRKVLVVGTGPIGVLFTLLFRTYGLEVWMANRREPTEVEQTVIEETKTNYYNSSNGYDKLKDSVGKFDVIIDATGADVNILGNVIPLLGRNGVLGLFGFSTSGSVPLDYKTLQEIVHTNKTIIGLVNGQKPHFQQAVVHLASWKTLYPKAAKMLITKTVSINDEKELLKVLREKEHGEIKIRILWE

- Ki: 29.5 ± 8.7 mM
Compound: OC[C@@H]1C[C@H](O)[C@@H](O)C(O)O1 (stereo partly drawn) [4-deoxy, 4-deoxy-D-glucose]
